In patent US20220160666A1, “COMPOSITIONS FOR USE IN SURGERY” (BTG INTERNATIONAL LIMITED, priority 2004, published 2022):

Legend:
[1] = system: brain field potentials (EEG power spectrum); conditions: rats, cited from earlier work; for change of EEG alpha1,2 and beta1,2 power: general anaesthetics, Dimpfel, 2003; for change of EEG theta, alpha1,2 and beta1,2 power: α2-adrenoceptor agonists, Dimpfel and Schober, 2001
[2] = system: electrical activity of the human brain; experiment: Quantitative EEG (CATEEM) during and after 24 h intravenous infusion in healthy male volunteers, placebo-controlled crossover; format: in vivo; conditions: 300 mg/kg iv over 24 h
From the text: The present inventors have now studied the effect of ketosis, in the exemplified case induced by administration of sodium salt of (R)-3-hydroxybutyrate (herein referred to as KTX 0101) as a single intravenous infusion of increasing dose and duration to 3 groups (Parts A, B and C) with 3 cohorts of 3 subjects each in Part A, and 1 cohort in each of Parts B (n=3) and C (n=8). Parts A and B were a partial crossover design and Part C was a crossover design. For details see protocol.
A 17-electrode EEG was recorded pre-dose and at 6, 12 and 24 h during the infusion and 1 and 24 hours following the end of drug administration. Recordings were performed under two physiological conditions, namely with 5 minutes eyes open and eyes closed, respectively. KTX 0101 was administered intravenously at a dose of 300 mg/kg given over 24 hours to 1 cohort (n=8) in a double blind placebo controlled crossover design (Part C of the study).
Single rising doses of KTX 0101 or placebo were administered to groups of healthy male volunteers according to a pre-specified dose escalation schedule (see main report). Incremental doses were administered in a stepwise manner proceeding to each higher dose only if the drug was well tolerated and the criteria for stopping dosing had not been met. The last two cohorts obtained the highest doses of 300 mg/kg and consisted of enough volunteers to justify a preliminary evaluation of recorded EEG data in order to obtain information on the pharmacodynamic effects of the potential drug. After recording of pre dose values the infusion was started and continued for 24 hours. EEG recordings took place during the infusion (6, 12 and 24 h) and 1 and 24 h after the end of the infusion. Each recording period was performed under 5 minutes eyes open and 5 minutes of eyes closed condition.
The EEG was recorded bipolarly from 17 surface electrodes according to the international 10/20 system with Cz as a physical reference electrode (Computer aided topographical electro-encephalo-metry: CATEEM® from MediSyst GmbH, 35440 Linden, Germany), using an electrocap. The raw signals were amplified, digitized (2048 Hz/12 bit) and transmitted via fiber optical devices to the computer. […] ECG and EOG were recorded in one channel each in order to facilitate detection of those signals superposing on to the EEG. […] The amount of rejected data was determined automatically and given in percent of total recording time. […] The data was recorded under two physiological conditions over a period of 5 minutes each (eyes open and eyes closed).
Using a Lagrange interpolation, signals from 82 additional virtual electrodes were calculated to provide high resolution topographical maps. […] Data were analysed from 0.86 to 35 Hz using the CATEEM® software. […]

Row | Molecule | change of EEG alpha1,2 and beta1,2 power [1] | change of EEG theta, alpha1,2 and beta1,2 power [1] | also measured
1 | isoflurothane | combined increases in alpha1,2 and beta1,2 power | – | –
2 | FC(F)(F)C(Cl)Br (stereo not shown) [halothane] | combined increases in alpha1,2 and beta1,2 power | – | –
3 | N=C(N)NC(=O)Cc1c(Cl)cccc1Cl [guanfacine] | – | Combined increases in theta, alpha1,2 and beta1,2 power | –
4 | Clc1cccc(Cl)c1N=C1NCCN1 [clonidine] | – | Combined increases in theta, alpha1,2 and beta1,2 power | –
5 | FC(F)OC(F)(F)C(F)Cl (stereo not shown) [enflurane] | combined increases in alpha1,2 and beta1,2 power | – | –
6 | C[C@@H](O)CC(=O)[O-].[Na+] [KTX 0101, sodium salt of (R)-3-hydroxybutyrate] | – | – | time after end of infusion up to which EEG changes could be traced [2]: up to 24 hours; change of EEG electrical power relative to pre-drug values ([2]; averaged over 15 electrode positions, during and after infusion): increases of electrical power were observed, especially with respect to theta, alpha and beta power; change of EEG electrical power relative to pre-dose values ([2]; eyes closed, centro-parietal regions, theta, alpha1, alpha2 and beta 1 ranges): increases of electrical power could be observed for the 6 h time period, less for the 12 h period but consistently thereafter; change of EEG electrical power relative to pre-dose values ([2]; eyes open, single electrode positions (FIG. 1)): an increase of delta and theta power as well as of alpha power is observed
7 | FC(F)OC(F)C(F)(F)F (stereo not shown) [desflurane] | combined increases in alpha1,2 and beta1,2 power | – | –
8 | Cc1cccc(C(C)c2c[nH]cn2)c1C (stereo not shown) [metedomidine] | – | Combined increases in theta, alpha1,2 and beta1,2 power | –
9 | COc1nc(C)nc(Cl)c1N=C1NCCN1 [maxonidine] | – | Combined increases in theta, alpha1,2 and beta1,2 power | –
10 | CC(Oc1c(Cl)cccc1Cl)C1=NCCN1 (single isomer, unassigned; (-)) [(-)lofexidine] | – | Combined increases in theta, alpha1,2 and beta1,2 power | –
